Here are results for 20 compounds from patent US20240376099A1, “COMPOUNDS AND COMPOSITIONS AS INHIBITORS OF ENDOSOMAL TOLL-LIKE RECEPTORS” (Novartis AG, priority 2016, published 2024).

Where only a bound is given, the exact number is not on record here.

The assay has as its target T1, TLR9 (Homo sapiens, UniProt Q9NR96).
T1 construct: Fresh blood was collected from normal human donors; endogenous in cells; host or cells: human PBMCs from fresh donor blood
T1 sequence (Q9NR96 26-1032): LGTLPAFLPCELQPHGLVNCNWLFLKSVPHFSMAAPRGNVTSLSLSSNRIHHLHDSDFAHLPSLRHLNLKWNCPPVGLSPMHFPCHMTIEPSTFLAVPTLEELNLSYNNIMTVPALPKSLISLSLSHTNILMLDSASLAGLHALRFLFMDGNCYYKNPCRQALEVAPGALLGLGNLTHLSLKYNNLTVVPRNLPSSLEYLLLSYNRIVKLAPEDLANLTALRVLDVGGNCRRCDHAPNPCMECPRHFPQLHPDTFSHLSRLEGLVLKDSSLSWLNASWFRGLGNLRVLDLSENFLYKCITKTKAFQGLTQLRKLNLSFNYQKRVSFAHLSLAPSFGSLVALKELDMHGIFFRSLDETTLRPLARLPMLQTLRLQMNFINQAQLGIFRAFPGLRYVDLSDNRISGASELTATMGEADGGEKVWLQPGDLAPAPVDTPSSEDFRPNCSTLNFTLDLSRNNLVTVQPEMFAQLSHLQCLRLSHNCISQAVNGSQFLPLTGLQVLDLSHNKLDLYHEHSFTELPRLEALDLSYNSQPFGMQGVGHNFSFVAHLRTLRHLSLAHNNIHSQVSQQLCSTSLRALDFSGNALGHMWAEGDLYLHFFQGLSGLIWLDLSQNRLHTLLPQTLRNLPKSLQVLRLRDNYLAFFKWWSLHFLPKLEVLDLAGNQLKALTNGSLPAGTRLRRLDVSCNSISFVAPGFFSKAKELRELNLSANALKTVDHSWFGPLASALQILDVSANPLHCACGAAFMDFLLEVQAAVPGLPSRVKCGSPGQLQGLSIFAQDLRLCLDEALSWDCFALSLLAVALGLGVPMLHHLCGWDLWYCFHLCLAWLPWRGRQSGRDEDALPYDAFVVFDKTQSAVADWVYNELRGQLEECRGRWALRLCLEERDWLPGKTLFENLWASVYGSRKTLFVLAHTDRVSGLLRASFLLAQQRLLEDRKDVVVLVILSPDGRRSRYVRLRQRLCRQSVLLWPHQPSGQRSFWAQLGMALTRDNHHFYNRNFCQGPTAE
Description: huPBMC TLR9 Antagonist IFNα Assay. It is filed as cell-based. The note with it: human PBMCs stimulated with ODN2216 0.3 μM, 14-16 hrs; IFNα2b AlphaLISA read-out. Put shortly: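 Human PBMCs from fresh donor blood (150,000 cells/well) stimulated 14–16 h at 37 °C with DOTAP-complexed ssRNA40 (final 1 μg/ml for TLR8, 10 μg/mL for TLR7) or ODN2216 (final 0.3 μM, TLR9), 0.25% DMSO, ten-point 1/3 compound dilutions. Supernatant IL-6 read by HTRF (TLR8); IFNα by IFNα2b AlphaLISA (TLR7/TLR9).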

Turning to `Cc1cc(N2CCc3c(c(C)nn3CC34CCC(NC(=O)CN5CCCC5)(CC3)CC4)C2)c2cnn(C)c2n1` [compound 100, N-(4-((5-(1,6-dimethyl-1H-pyrazolo[3,4-b]pyridin-4-yl)-3-methyl-4,5,6,7-tetrahydro-1H-pyrazolo[4,3-c]pyridin-1-yl)methyl)bicyclo[2.2.2]octan-1-yl)-2-(pyrrolidin-1-yl)acetamide], the 50% inhibitory concentration (IC50) is 1360 nM.

Turning to `COCCNC12CCC(Cn3nc(C)c4c3CCN(c3cc(C)nc5c3cnn5C)C4)(CC1)OC2` [compound 102, 1-((5-(1,6-dimethyl-1H-pyrazolo[3,4-b]pyridin-4-yl)-3-methyl-4,5,6,7-tetrahydro-1H-pyrazolo[4,3-c]pyridin-1-yl)methyl)-N-(2-methoxyethyl)-2-oxabicyclo[2.2.2]octan-4-amine], the half-inhibitory concentration (IC50) was 1240 nM.

Take `Cc1cc(N2CCc3c(c(C)nn3CC34CCC(NC(=O)CCN(C)C)(CC3)CC4)C2)c2cnn(C)c2n1` [compound 105, N-(4-((5-(1,6-dimethyl-1H-pyrazolo[3,4-b]pyridin-4-yl)-3-methyl-4,5,6,7-tetrahydro-1H-pyrazolo[4,3-c]pyridin-1-yl)methyl)bicyclo[2.2.2]octan-1-yl)-3-(dimethylamino)propanamide]: the IC50 is 1630 nM.

As to `Cc1cc(N2CCc3c(c(C)nn3CC34CCC(NCC(=O)N5CCCC5)(CC3)CC4)C2)c2cnn(C)c2n1` [compound 106, 2-((4-((5-(1,6-dimethyl-1H-pyrazolo[3,4-b]pyridin-4-yl)-3-methyl-4,5,6,7-tetrahydro-1H-pyrazolo[4,3-c]pyridin-1-yl)methyl)bicyclo[2.2.2]octan-1-yl)amino)-1-(pyrrolidin-1-yl)ethanone], the IC50 is 2660 nM.

For the compound `Cc1cc(N2CCc3c(c(C)nn3CC34CCC(N5CCO[C@H](C)C5)(CC3)CC4)C2)c2cnn(C)c2n1` [compound 107, (R)-4-(4-((5-(1,6-dimethyl-1H-pyrazolo[3,4-b]pyridin-4-yl)-3-methyl-4,5,6,7-tetrahydro-1H-pyrazolo[4,3-c]pyridin-1-yl)methyl)bicyclo[2.2.2]octan-1-yl)-2-methylmorpholine], the 50% inhibitory concentration (IC50) is 1710 nM.

Consider `Cc1cc(N2CCc3c(c(C)nn3CC34CCC(N5CCO[C@@H](C)C5)(CC3)CC4)C2)c2cnn(C)c2n1` [compound 109, (S)-4-(4-((5-(1,6-dimethyl-1H-pyrazolo[3,4-b]pyridin-4-yl)-3-methyl-4,5,6,7-tetrahydro-1H-pyrazolo[4,3-c]pyridin-1-yl)methyl)bicyclo[2.2.2]octan-1-yl)-2-methylmorpholine], for which the concentration for half-maximal inhibition (IC50) stood at 515 nM.

For the compound `Cc1cc(N2CCc3c(c(C)nn3CC34CCC(N5C[C@@H](C)O[C@@H](C)C5)(CC3)CC4)C2)c2cnn(C)c2n1` [compound 110, (2S,6R)-4-(4-((5-(1,6-dimethyl-1H-pyrazolo[3,4-b]pyridin-4-yl)-3-methyl-4,5,6,7-tetrahydro-1H-pyrazolo[4,3-c]pyridin-1-yl)methyl)bicyclo[2.2.2]octan-1-yl)-2,6-dimethylmorpholine], the IC50 was determined as 1900 nM.

Consider `Cc1cc(N2CCc3c(c(C)nn3CC34CCC(N5C[C@H](C)O[C@@H](C)C5)(CC3)CC4)C2)c2cnn(C)c2n1` [compound 111, (2S,6S)-4-(4-((5-(1,6-dimethyl-1H-pyrazolo[3,4-b]pyridin-4-yl)-3-methyl-4,5,6,7-tetrahydro-1H-pyrazolo[4,3-c]pyridin-1-yl)methyl)bicyclo[2.2.2]octan-1-yl)-2,6-dimethylmorpholine], for which the IC50 stood at 1410 nM.

With `Cc1cc(N2CCc3c(c(C)nn3CC34CCC(NCC5CCC5)(CC3)CO4)C2)c2cnn(C)c2n1` [compound 112, N-(cyclobutylmethyl)-1-((5-(1,6-dimethyl-1H-pyrazolo[3,4-b]pyridin-4-yl)-3-methyl-4,5,6,7-tetrahydro-1H-pyrazolo[4,3-c]pyridin-1-yl)methyl)-2-oxabicyclo[2.2.2]octan-4-amine], the 50% inhibitory concentration (IC50) turned out to be 1190 nM.

Turning to `Cc1cc(N2CCc3c(c(C)nn3CC34CCC(N5C[C@@H](C)O[C@H](C)C5)(CC3)CC4)C2)c2cnn(C)c2n1` [compound 113, (2R,6R)-4-(4-((5-(1,6-dimethyl-1H-pyrazolo[3,4-b]pyridin-4-yl)-3-methyl-4,5,6,7-tetrahydro-1H-pyrazolo[4,3-c]pyridin-1-yl)methyl)bicyclo[2.2.2]octan-1-yl)-2,6-dimethylmorpholine], the 50% inhibitory concentration (IC50) came out at 1410 nM.

Regarding `CCNCC(=O)NC12CCC(Cn3nc(C)c4c3CCN(c3cc(C)nc5c3cnn5C)C4)(CC1)CC2` [compound 114, N-(4-((5-(1,6-dimethyl-1H-pyrazolo[3,4-b]pyridin-4-yl)-3-methyl-4,5,6,7-tetrahydro-1H-pyrazolo[4,3-c]pyridin-1-yl)methyl)bicyclo[2.2.2]octan-1-yl)-2-(ethylamino)acetamide], the IC50 stood at 1550 nM.

Regarding `Cc1cc(N2CCc3c(c(C)nn3CC34CCC(NC(=O)CCN)(CC3)CC4)C2)c2cnn(C)c2n1` [compound 115, 3-amino-N-(4-((5-(1,6-dimethyl-1H-pyrazolo[3,4-b]pyridin-4-yl)-3-methyl-4,5,6,7-tetrahydro-1H-pyrazolo[4,3-c]pyridin-1-yl)methyl)bicyclo[2.2.2]octan-1-yl)propanamide], the concentration for half-maximal inhibition (IC50) was greater than 10000 nM.

For the compound `Cc1cc(N2CCc3c(c(C)nn3CC34CCC(N5CC6(COC6)C5)(CC3)CC4)C2)c2cnn(C)c2n1` [compound 116, 6-(4-((5-(1,6-dimethyl-1H-pyrazolo[3,4-b]pyridin-4-yl)-3-methyl-4,5,6,7-tetrahydro-1H-pyrazolo[4,3-c]pyridin-1-yl)methyl)bicyclo[2.2.2]octan-1-yl)-2-oxa-6-azaspiro[3.3]heptane], the IC50 was 1570 nM.

On to `CN[C@H](C)C(=O)NC12CCC(Cn3nc(C)c4c3CCN(c3cc(C)nc5c3cnn5C)C4)(CC1)CC2` [compound 117, (R)-N-(4-((5-(1,6-dimethyl-1H-pyrazolo[3,4-b]pyridin-4-yl)-3-methyl-4,5,6,7-tetrahydro-1H-pyrazolo[4,3-c]pyridin-1-yl)methyl)bicyclo[2.2.2]octan-1-yl)-2-(methylamino)propanamide], for which the IC50 was found to be 954 nM.

As to `CN[C@@H](C)C(=O)NC12CCC(Cn3nc(C)c4c3CCN(c3cc(C)nc5c3cnn5C)C4)(CC1)CC2` [compound 118], the IC50 was 775 nM.

`CNCC(=O)NC12CCC(Cn3nc(C)c4c3CCN(c3cc(C)nc5c3cnn5C)C4)(CC1)CC2` [compound 121, N-(4-((5-(1,6-dimethyl-1H-pyrazolo[3,4-b]pyridin-4-yl)-3-methyl-4,5,6,7-tetrahydro-1H-pyrazolo[4,3-c]pyridin-1-yl)methyl)bicyclo[2.2.2]octan-1-yl)-2-(methylamino)acetamide]: the 50% inhibitory concentration (IC50) is 1440 nM.

For the compound `Cc1cc(N2CCc3c(c(C)nn3CC34CCC(NCC(C)(C)O)(CC3)CC4)C2)c2cnn(C)c2n1` [compound 123, 1-((4-((5-(1,6-dimethyl-1H-pyrazolo[3,4-b]pyridin-4-yl)-3-methyl-4,5,6,7-tetrahydro-1H-pyrazolo[4,3-c]pyridin-1-yl)methyl)bicyclo[2.2.2]octan-1-yl)amino)-2-methylpropan-2-ol], the IC50 worked out at 2230 nM.

`CCNCC(=O)NC12CCC(Cn3nc(C)c4c3CCN(c3cc(C)nc5cn[nH]c35)C4)(CC1)CC2` [compound 124, 2-(ethylamino)-N-(4-((3-methyl-5-(5-methyl-1H-pyrazolo[4,3-b]pyridin-7-yl)-4,5,6,7-tetrahydro-1H-pyrazolo[4,3-c]pyridin-1-yl)methyl)bicyclo[2.2.2]octan-1-yl)acetamide]: the half-maximal inhibitory concentration (IC50) was greater than 10000 nM.

As for `Cc1cc(N2CCc3c(c(C)nn3CC34CCC(NC(=O)C5CNCCO5)(CC3)CC4)C2)c2cnn(C)c2n1` (centres unmarked) [compound 125, N-(4-((5-(1,6-dimethyl-1H-pyrazolo[3,4-b]pyridin-4-yl)-3-methyl-4,5,6,7-tetrahydro-1H-pyrazolo[4,3-c]pyridin-1-yl)methyl)bicyclo[2.2.2]octan-1-yl)morpholine-2-carboxamide], the half-maximal inhibitory concentration (IC50) turned out to be 909 nM.

For the compound `CCNCCC(=O)NC12CCC(Cn3nc(C)c4c3CCN(c3cc(C)nc5c3cnn5C)C4)(CC1)CC2` [compound 126, N-(4-((5-(1,6-dimethyl-1H-pyrazolo[3,4-b]pyridin-4-yl)-3-methyl-4,5,6,7-tetrahydro-1H-pyrazolo[4,3-c]pyridin-1-yl)methyl)bicyclo[2.2.2]octan-1-yl)-3-(ethylamino)propanamide], the 50% inhibitory concentration (IC50) amounted to 9530 nM.
